From patent US11065194B2, “Cosmetic use of extracts of Salvia miltiorrhiza roots, special extracts of Salvia miltiorrhiza roots and cosmetic compositions containing such extracts” (SOCIETE INDUSTRIELLE LIMOUSINE D'APPLICATION BIOLOGIQUE, priority 2018, dated 2021)
Marks after values point to notes of the source that are not given here.

Columns and labels:
[1] = target: T1, TRPV1 receptors of human sensory neurons (Homo sapiens, UniProt Q8NER1); assay: Inhibition of TRPV1 receptors of sensory neurons activated by capsaicin (cytoplasmic calcium, Fluo-4 probe); assay type: cell-based; conditions: tested at 10 μM
T1 construct: endogenous in cells; host or cells: human sensory neurons derived from hiPS cells, in co-culture with normal human keratinocytes
Protocol: The aim of this study is to evaluate the capacity of an extract of Salvia miltiorrhiza roots to inhibit the activity of TRPV1 (Transient receptor potential vanilloid 1) receptors of human sensory neurons that play a major role in the detection and transmission of sensations of pain and itching to the central nervous system.
This study was performed on a model of human sensory neurons derived from hiPS cells (human-induced Pluripotent Stem Cells) in co-culture with human keratinocytes. The activation of TRPV1 receptors is characterized by a massive entry of calcium into the cytoplasm of the sensory neurons that can be captured by a fluorescent probe and analyzed by epifluorescence microscopy.
The operating protocol is described below: • D0, culture of sensory neurons derived from hiPS cells: • The hiPS (human-induced Pluripotent Stem) cells are seeded in a culture medium and incubated at 37° C. • D14, placed in co-culture with normal human keratinocytes: • Some human keratinocytes are seeded onto the carpet of sensory neurons. […] This entry of calcium is captured by the Fluo-4 probe, causing an increase in the level of fluorescence in the neurons. The greater the increase in the level of fluorescence, the more the TRPV1 receptors are activated.
The average of the increase in the level of fluorescence was compared in percentage terms to the non-activated control condition.

COX-2 = assay: Synthesis of COX-2 on SILABSKIN REs treated with fine particles (PM), immunohistochemistry; assay type: cell-based, human; conditions: tested at 1 μM
Description: The purpose of this study is to evaluate the capacity of an extract of Salvia miltiorrhiza roots to limit the synthesis of cyclo-oxygenase 2 (COX-2) in the event of an inflammation caused by a pollutant (fine particles: PM).
The expression of COX-2 has been evaluated by immunohistochemistry on SILABSKIN® REs subjected to repeated treatments with fine particles (PM) in order to mimic a polluted environment.
Human keratinocytes were cultivated in a specific culture medium • D0: • Normal human keratinocytes were seeded on inserts then incubated at 37° C. in an atmosphere containing 5% CO2. • D2 to D13: • The culture medium was changed every 2 days. • D14 and D15, treatments of SILABSKIN® REs: • SILABSKIN® REs were treated topically with a solution of fine particles (PM), with or without the presence of the extract of Example 1 at 0.25% (V/V), or with capsazepine at […]. • D16: • The SILABSKIN® REs were recovered, fixed, dehydrated and embedded in paraffin. Sections (4 μm) were then cut using a microtome (RM2125RT, Leica).
B. Analysis of the Expression of COX-2 by Immunohistochemical Marking • Removal of paraffin with xylene • Unmasking the antigenic sites • Saturation • Primary antibody: rabbit monoclonal anti-COX-2 antibody • Secondary antibody: coupled Alexa Fluor® 488 […] antibody
The expression of COX-2 was proportional to the intensity of the green fluorescence present on the SILABSKIN® REs. A quantitative analysis of the images was performed with the aid of Matlab® version R2012b (MathWorks) software. The results were expressed in arbitrary units (UA).

PGE2 = assay: Secretion of PGE2 by human keratinocytes treated with fine particles (PM), ELISA; assay type: cell-based; conditions: tested at 0.5 μM
Protocol: The purpose of this study is to evaluate the capacity of an extract of Salvia miltiorrhiza roots to limit the secretion of prostaglandins E2 (PGE2) in the event of an inflammation caused by a pollutant (fine particles: PM).
This study was performed by ELISA assay on the culture supernatant of human keratinocytes subjected to a treatment with fine particles (PM) mimicking a polluted environment.
The operating protocol of the study is described below. • D0:
Normal human keratinocytes were seeded in a culture medium and incubated at 37° C. in an atmosphere containing 5% CO2. • D2: • Pre-treatment:
The keratinocytes were pretreated with or without the extract of Example 1 at 0.025% and 0.05% (V/V) or with capsazepine at 0.5 μM (inhibitor of TRPV1). The cells were then incubated for 30 minutes at 37° C. in an atmosphere containing 5% CO2. • Treatment with fine particles (PM):
The keratinocytes were treated with a solution of particles.
The cells were then incubated for 24 hours at 37° C. in an atmosphere containing 5% CO2. • D3, recovery of supernatants:
The culture supernatants were recovered and the PGE2s were assayed using an ELISA Kit (Enzo Life Sciences).
The test of Study II.2 on the secretion of PGE2 was performed on the extract and on Fraction A.

T1 sequence (Q8NER1 whole entry): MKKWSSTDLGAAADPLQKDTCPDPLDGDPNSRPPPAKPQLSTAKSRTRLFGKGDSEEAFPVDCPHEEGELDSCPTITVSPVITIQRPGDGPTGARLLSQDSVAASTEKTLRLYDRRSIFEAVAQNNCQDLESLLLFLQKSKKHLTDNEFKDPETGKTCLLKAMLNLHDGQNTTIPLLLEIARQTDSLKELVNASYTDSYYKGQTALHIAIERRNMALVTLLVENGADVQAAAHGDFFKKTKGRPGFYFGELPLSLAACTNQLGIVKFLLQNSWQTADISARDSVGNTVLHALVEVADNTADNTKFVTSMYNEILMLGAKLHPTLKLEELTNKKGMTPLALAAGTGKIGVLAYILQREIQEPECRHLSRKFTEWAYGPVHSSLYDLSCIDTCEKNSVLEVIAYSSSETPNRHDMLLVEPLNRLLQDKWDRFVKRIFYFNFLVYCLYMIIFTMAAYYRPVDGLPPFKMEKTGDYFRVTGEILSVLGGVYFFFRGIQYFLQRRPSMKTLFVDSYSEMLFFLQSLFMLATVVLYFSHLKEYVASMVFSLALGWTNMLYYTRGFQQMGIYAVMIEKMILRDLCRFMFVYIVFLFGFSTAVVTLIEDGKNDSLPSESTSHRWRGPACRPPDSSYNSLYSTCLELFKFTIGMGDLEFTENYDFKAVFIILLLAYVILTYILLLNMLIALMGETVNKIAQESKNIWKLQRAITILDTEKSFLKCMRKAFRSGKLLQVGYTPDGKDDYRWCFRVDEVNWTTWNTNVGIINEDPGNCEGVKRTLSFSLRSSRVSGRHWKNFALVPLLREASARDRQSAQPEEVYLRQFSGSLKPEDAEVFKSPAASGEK

inhibition at 10 µM ([1]; capsaicin 10 μM, read-out: Inhibition of TRPV1 receptors/activated control neurons): 199%
Mobilization of cytoplasmic calcium ([1]; neurons activated by capsaicin 10 μM, non-activated control = 100): 131*** %
Compound: Oc1cc2c(cc1O)CN(C(=S)NCCc1ccc(Cl)cc1)CCC2 [Capsazepine, capsazepine]
Inhibition of the PM-caused increase in expression of COX-2 (COX-2): 38%
Synthesis of COX-2/polluted control (COX-2): −38%
Synthesis of COX-2 (COX-2; polluted SILABSKIN REs (PM)): 659* ×10^3 UA
inhibition at 0.5 µM (PGE2; Homo sapiens, Keratinocyte, read-out: Inhibition of the PM-caused increase in secretion of PGE2): 78%
PGE2 Content/PM-treated control (PGE2): −78%
PGE2 Content (PGE2; keratinocytes treated with PMs): 433* pg/mg of proteins
